From US20240270740A1, “INHIBITORS OF CYCLIC GMP-AMP SYNTHASE AND USES THEREOF” (Ventus Therapeutics U.S., Inc., priority 2022, published 2024) come the findings set out here.

Assay [1] addresses T1, hcGAS (Homo sapiens, UniProt Q8N884). Nature of the assay: hcGAS Kinase-Glo assay (ATP depletion). Type of assay: biochemical. The note with it: for IC50: 40 nM hcGAS, 100 μM ATP, 100 μM GTP, 25 nM dsDNA, 3 h incubation. Summed up:
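Human cGAS activity measured indirectly as ATP depletion by Kinase-Glo luminescence, following the Lama et al. method with modified conditions. Output is IC50, binned into potency categories.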
On the technique in general: Kinase-Glo measures the ATP left after a reaction by luminescence.

For assay [2], the target named is T1, hcGAS. Nature of the assay: hcGAS LCMS assay (direct measurement of cGAMP production). It is filed as biochemical. The note with it: for IC50: 0.5 nM hcGAS, 100 μM ATP, 100 μM GTP, 25 nM dsDNA, 4 h incubation. The gist of the method: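 Direct LC/MS readout of cGAMP formed: 4-h enzyme–substrate incubation with compound, stopped by acetonitrile/water quench carrying isotope-labelled cGAMP (0.15 mM) as standard. Potency reported as IC50 ranges.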

Where [3] appears, read: compared with Compound 103 (without —CH2OCH3).

T1 sequence (Q8N884 whole entry): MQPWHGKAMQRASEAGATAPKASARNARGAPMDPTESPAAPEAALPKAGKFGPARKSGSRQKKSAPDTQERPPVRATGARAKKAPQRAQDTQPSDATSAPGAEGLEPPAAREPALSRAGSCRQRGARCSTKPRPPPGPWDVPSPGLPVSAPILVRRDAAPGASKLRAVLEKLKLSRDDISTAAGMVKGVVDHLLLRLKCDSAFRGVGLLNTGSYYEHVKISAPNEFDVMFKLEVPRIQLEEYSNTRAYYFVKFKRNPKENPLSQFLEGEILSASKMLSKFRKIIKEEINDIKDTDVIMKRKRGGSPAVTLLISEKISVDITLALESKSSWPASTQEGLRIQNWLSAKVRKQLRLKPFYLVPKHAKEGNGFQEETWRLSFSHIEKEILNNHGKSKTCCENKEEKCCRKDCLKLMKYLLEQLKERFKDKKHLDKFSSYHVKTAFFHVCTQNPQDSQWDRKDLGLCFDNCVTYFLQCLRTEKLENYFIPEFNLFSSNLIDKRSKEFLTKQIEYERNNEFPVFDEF

One may read the IC50 as the midpoint of a concentration-inhibition curve. For the compound “3-methoxy-4-(((1R,2S)-2-methoxycyclobutyl)amino)-N-(5-(5-methyl-1H-pyrazol-1-yl)-1,3,4-thiadiazol-2-yl)-2-oxo-2H-pyran-6-carboxamide [Rac-67]”, the IC50 on hcGAS [1] lay within 10 to 30 nM; on hcGAS [2], 5 to 20 nM.
Consider `COc1c(NC[C@H](C)OC)cc(C(=O)Nc2nnc(-n3nccc3C)s2)oc1=O` [Compound 187, (S)-3-methoxy-4-((2-methoxypropyl)amino)-N-(5-(5-methyl-1H-pyrazol-1-yl)-1,3,4-thiadiazol-2-yl)-2-oxo-2H-pyran-6-carboxamide], for which the IC50 against hcGAS [1] fell in the range of 10 to 30 nM; on hcGAS [2] it was 5 to 20 nM.
The corresponding values for `COc1c(N2CC[C@H](OC)C2)cc(C(=O)Nc2nnc(-n3nccc3C)s2)oc1=O` [Compound 57, (S)-3-methoxy-4-(3-methoxypyrrolidin-1-yl)-N-(5-(5-methyl-1H-pyrazol-1-yl)-1,3,4-thiadiazol-2-yl)-2-oxo-2H-pyran-6-carboxamide] are 10 to 30 nM and 5 to 20 nM.
For `COc1c(N[C@@H]2CC[C@H]2OC)cc(C(=O)Nc2nnc(-n3nccc3C)s2)oc1=O` (racemic) [Rac-36, 3-methoxy-4-(((1R,2R)-2-methoxycyclobutyl)amino)-N-(5-(5-methyl-1H-pyrazol-1-yl)-1,3,4-thiadiazol-2-yl)-2-oxo-2H-pyran-6-carboxamide], the figures for the IC50 on hcGAS [1] and against hcGAS [2] were 10 to 30 nM and 5 to 20 nM, respectively.
Take `COc1c(N2C[C@H](O)[C@H](OC)C2)cc(C(=O)Nc2nnc(-n3nccc3C)s2)oc1=O` (racemic) [Rac-68, 4-((3S,4R)-3-hydroxy-4-methoxypyrrolidin-1-yl)-3-methoxy-N-(5-(5-methyl-1H-pyrazol-1-yl)-1,3,4-thiadiazol-2-yl)-2-oxo-2H-pyran-6-carboxamide]: the IC50 fell in the range of 10 to 30 nM on hcGAS [1] and 5 to 20 nM on hcGAS [2].
On the same counts, the results for `COc1c(N[C@H]2CCC[C@H]2O)cc(C(=O)Nc2nnc(-c3c(Cl)ccn3C)s2)oc1=O` (racemic) [Rac-188, N-(5-(3-chloro-1-methyl-1H-pyrrol-2-yl)-1,3,4-thiadiazol-2-yl)-4-(((1S,2R)-2-hydroxycyclopentyl)amino)-3-methoxy-2-oxo-2H-pyran-6-carboxamide] are below 10 nM and below 5 nM.
On the same counts, the results for `COc1c(N(C)C)cc(C(=O)Nc2nnc(-n3nccc3C)s2)oc1=O` [Compound 106, 4-(dimethylamino)-3-methoxy-N-(5-(5-methyl-1H-pyrazol-1-yl)-1,3,4-thiadiazol-2-yl)-2-oxo-2H-pyran-6-carboxamide] are 30 to 100 nM and 20 to 60 nM.
For `COc1c(N[C@H]2CCCC[C@H]2O)cc(C(=O)Nc2nnc(-n3nccc3C)s2)oc1=O` (racemic) [Rac-189, 4-(((1S,2R)-2-hydroxycyclohexyl)amino)-3-methoxy-N-(5-(5-methyl-1H-pyrazol-1-yl)-1,3,4-thiadiazol-2-yl)-2-oxo-2H-pyran-6-carboxamide], the results for the IC50 at hcGAS [1] and on hcGAS [2] were 10 to 30 nM and 5 to 20 nM, respectively.
For the compound `COc1c(N[C@@H]2CC[C@@H]2O)cc(C(=O)Nc2nnc(-n3nccc3C)s2)oc1=O` (racemic) [Rac-43, 4-(((1R,2S)-2-hydroxycyclobutyl)amino)-3-methoxy-N-(5-(5-methyl-1H-pyrazol-1-yl)-1,3,4-thiadiazol-2-yl)-2-oxo-2H-pyran-6-carboxamide], the IC50 against hcGAS [1] lay in the range of 10 to 30 nM; against hcGAS [2], 5 to 20 nM.
On the same counts, the results for `COCCNc1cc(C(=O)Nc2nnc(-c3cscc3Cl)s2)oc(=O)c1OC` [Compound 136, N-(5-(4-chlorothiophen-3-yl)-1,3,4-thiadiazol-2-yl)-3-methoxy-4-((2-methoxyethyl)amino)-2-oxo-2H-pyran-6-carboxamide] are 10 to 30 nM and 5 to 20 nM.
The corresponding values for `COc1c(N2CCCC2=O)cc(C(=O)Nc2nnc(-n3nccc3C)s2)oc1=O` [Compound 42, 3-methoxy-N-(5-(5-methyl-1H-pyrazol-1-yl)-1,3,4-thiadiazol-2-yl)-2-oxo-4-(2-oxopyrrolidin-1-yl)-2H-pyran-6-carboxamide] are below 10 nM and below 5 nM.
The corresponding values for `COc1c(N[C@H]2CCC[C@H]2OC)cc(C(=O)Nc2nnc(-n3nccc3C)s2)oc1=O` (racemic) [Rac-14, 3-methoxy-4-(((1S,2R)-2-methoxycyclopentyl)amino)-N-(5-(5-methyl-1H-pyrazol-1-yl)-1,3,4-thiadiazol-2-yl)-2-oxo-2H-pyran-6-carboxamide] are 10 to 30 nM and 5 to 20 nM.
With `COC[C@H](Nc1cc(C(=O)Nc2nnc(-n3nccc3C)s2)oc(=O)c1OC)c1ccccc1` [Compound 114, (R)-3-methoxy-4-((2-methoxy-1-phenylethyl)amino)-N-(5-(5-methyl-1H-pyrazol-1-yl)-1,3,4-thiadiazol-2-yl)-2-oxo-2H-pyran-6-carboxamide], the IC50 was below 10 nM against hcGAS [1] and below 5 nM against hcGAS [2]. Besides, at hcGAS [1] (setting [3]), the “inhibitory activity in hcGAS Kinase glo assay” value was “improved inhibitory activity”. In addition, the “inhibitory activity in hcGAS LCMS assay” value at hcGAS [2] (setting [3]) is “improved inhibitory activity”.
For `COc1c(N2C[C@H](OC)[C@@H](OC)C2)cc(C(=O)Nc2nnc(-n3nccc3C)s2)oc1=O` (racemic) [Rac-92, 4-((3S,4S)-3,4-dimethoxypyrrolidin-1-yl)-3-methoxy-N-(5-(5-methyl-1H-pyrazol-1-yl)-1,3,4-thiadiazol-2-yl)-2-oxo-2H-pyran-6-carboxamide], the IC50 at hcGAS [1] is 10 to 30 nM; against hcGAS [2], 5 to 20 nM.
Regarding `COc1c(NCCO)cc(C(=O)Nc2nnc(-c3c(Cl)ccn3C)s2)oc1=O` [Compound 129, N-(5-(3-chloro-1-methyl-1H-pyrrol-2-yl)-1,3,4-thiadiazol-2-yl)-4-((2-hydroxyethyl)amino)-3-methoxy-2-oxo-2H-pyran-6-carboxamide], the values for the IC50 at hcGAS [1] and against hcGAS [2] were below 10 nM and 5 to 20 nM, respectively.
The corresponding values for `COc1c(NCCO)cc(C(=O)Nc2nnc(-n3nccc3C)s2)oc1=O` [Compound 130, 4-((2-hydroxyethyl)amino)-3-methoxy-N-(5-(5-methyl-1H-pyrazol-1-yl)-1,3,4-thiadiazol-2-yl)-2-oxo-2H-pyran-6-carboxamide] are 30 to 100 nM and 20 to 60 nM.
Take `COc1c(N[C@@H]2CCC[C@@H]2O)cc(C(=O)Nc2nnc(-n3nccc3C)s2)oc1=O` [Compound 112, 4-(((1R,2S)-2-hydroxycyclopentyl)amino)-3-methoxy-N-(5-(5-methyl-1H-pyrazol-1-yl)-1,3,4-thiadiazol-2-yl)-2-oxo-2H-pyran-6-carboxamide]: the IC50 is below 10 nM against hcGAS [1] and below 5 nM against hcGAS [2].
In the case of `COc1c(N[C@H]2CCOC2)cc(C(=O)Nc2nnc(-n3nccc3C)s2)oc1=O` [Compound 185, (S)-3-methoxy-N-(5-(5-methyl-1H-pyrazol-1-yl)-1,3,4-thiadiazol-2-yl)-2-oxo-4-((tetrahydrofuran-3-yl)amino)-2H-pyran-6-carboxamide], the IC50 against hcGAS [1] fell in the range of 30 to 100 nM; against hcGAS [2] it was 5 to 20 nM.
On the same counts, the results for `COCC(COC)Nc1cc(C(=O)Nc2nnc(-n3nccc3C)s2)oc(=O)c1OC` [Compound 10, 4-((1,3-dimethoxypropan-2-yl)amino)-3-methoxy-N-(5-(5-methyl-1H-pyrazol-1-yl)-1,3,4-thiadiazol-2-yl)-2-oxo-2H-pyran-6-carboxamide] are 10 to 30 nM and 5 to 20 nM.
